From patent publication US9034877B2 (Wayne State University, priority 2009, dated 2015)
“Also recorded” adds a separate entry of the source. Values belong to the compound of their own block, whether it stands above or below them.

How the values were obtained:
[1] = biological target: T1, hD3 receptor (Homo sapiens, UniProt P35462); assay: Stimulation of [35S]GTPγS binding, hD3 receptor expressed in CHO cells; format: biochemical
T1 construct: expressed in transfected cells; host or cells: CHO

[2] = tested on: reserpinized rats; assay: Reversal of reserpine-induced hypolocomotion in rats; format: in vivo, rat; conditions: 10 μMol/kg; for Reversal of reserpine-induced hypolocomotion (horizontal locomotor activity): (−)19b i.p., ropinirole s.c., 18 h after reserpine 5 mg/kg s.c., 6 h
Description: Administration of reserpine induces catalepsy in rodents primarily by blocking the vesicular monoamine trasporter (VMAT) which helps in the internalization of monoamines into vesicles, resulting in metabolism of unprotected monoamines in the cytosol that ultimately causes depletion of monoamines in the synapse of the peripheral sympathetic nerve terminals. The ability of the compound (-)-19b to reverse the reserpine induced hypolocomotion was investigated. Ropinirole was used as standard reference compound in this study. Reserpine (5.0 mg/kg, s.c.) or saline (s.c.) were administered 18 h before the injection of drug or vehicle (i.p.). The rats were placed individually in chambers for 1 h for acclimatization purpose before the administration of the test drug, standard drug or vehicle. Immediately after administration of drug or vehicle, animals were individually placed in […] animal activity monitor chamber (45×30×20 cm) (AccuScan Instruments, Inc. Columbus, Ohio) to start measuring locomotor activity. Locomotion was monitored for 6 h. Consecutive interruption of two infrared beams situated 24 cm apart and 4 cm above the cage floor in the monitor chamber recorded movement. The data were presented as horizontal counts (HACTV). The effect of the individual doses of drugs on locomotor activity was compared with respect to saline treated controls (mean±S.E.M.). The data were analyzed by one way analysis of variance (ANOVA) followed by Dunnett's post-hoc test.

[3] = tested on: 6-OHDA lesioned rats; assay: Rotational experiment with 6-OHDA unilaterally lesioned rats; format: in vivo, rat
[4] = background statement; cited from earlier work

T1 sequence (P35462 whole entry): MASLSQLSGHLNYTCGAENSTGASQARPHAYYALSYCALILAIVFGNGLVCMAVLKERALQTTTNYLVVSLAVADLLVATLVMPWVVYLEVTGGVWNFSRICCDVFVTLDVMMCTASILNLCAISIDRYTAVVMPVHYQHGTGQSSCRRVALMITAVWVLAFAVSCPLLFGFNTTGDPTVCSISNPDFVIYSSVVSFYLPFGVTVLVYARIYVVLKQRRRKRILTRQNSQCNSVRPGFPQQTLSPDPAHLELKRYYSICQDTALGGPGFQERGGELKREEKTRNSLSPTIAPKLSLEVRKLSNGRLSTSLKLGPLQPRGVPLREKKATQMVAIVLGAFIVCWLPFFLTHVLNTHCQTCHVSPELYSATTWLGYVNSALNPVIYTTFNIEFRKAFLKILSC

- Agonism at D3 compared with dopamine [1]: full or near-complete agonism
Compound: CCCN(CCN1CCN(c2ccnc3c(O)cccc23)CC1)C1CCc2c(O)cccc2C1 (single isomer, unassigned; (-)) [Compound (−)19b, (−)-4-(4-(2-((5-hydroxy-1,2,3,4-tetrahydronaphthalen-2-yl) (propyl)amino)ethyl)piperazin-1-yl)quinolin-8-ol]
- Reversal of reserpine-induced hypolocomotion (horizontal locomotor activity) [2]: highly efficacious; also recorded: significantly different
- Rotational activity at the higher dose ([3]; 1 μMol/kg (0.61 mg/kg), 11 h): remained high at the termination of the experiments

Compound: C#CCNCc1ccc(O)c2ncccc12 [Compound M30, 5-((prop-2-ynylamino)methyl)quinolin-8-ol]
- Activity in animal experiments [4]: antioxidant and neuroprotective

Compound: OCCN1CCN(Cc2ccc(O)c3ncccc23)CC1 [VK 28, 5-((4-(2-hydroxyethyl)piperazin-1-yl)methyl)quinolin-8-ol]
- Activity in animal experiments [4]: antioxidant and neuroprotective

Compound: CCCN(CCC)CCc1cccc2c1CC(=O)N2 [ropinirole, reference compound]
- Agonism at D3 compared with dopamine [1]: full or near-complete agonism
- Reversal of reserpine-induced hypolocomotion (horizontal locomotor activity) [2]: significantly different
- Duration of action in reserpinized rats ([2]; compared with (−)19b): much shorter duration of action
- Rotations and duration of action ([3]; 5 μMol/kg): much less rotations with shorter duration of action
- Effect on rotations compared to vehicle (Dunnett) ([3]; (−)19b two doses i.p., ropinirole): significant
